The subject of one data set is white blood cells (WBC). Description: Hematological toxicity, white blood cell count in mice. In kind it is in vivo, BALB/c female mice. The procedure: The drug schedule protocol was equivalent to the anticancer efficacy study. Blood samples were taken in the mice tail vein at 1, 12, 15, 17 and 22 days and transferred to Eppendorf tube containing 2 μL of EDTA for white blood cells (WBC) numbering using a MS9-5 (MS Pharmaceuticals, France).

Data set [1] deals with LLC1 Lewis lung cancer cells. Description: cells. Particulars: Mus musculus.
A further data set can be described thus: in vivo. The note with it: female, BALB/c, mouse, plasma, iv, 10 mg/kg.
Another data set relates to CT26 colon cancer cells. Description: In vitro cytotoxicity, MTT test, CT26 cells. Particulars: Mus musculus.
Data set [2] concerns Murine carcinoma tumors CT26. Description: Anticancer efficacy on subcutaneous CT26 tumors in mice. Particulars: 10 mg/kg ETO d8, d9 and d11, d12.
Data set [3] is described as follows: Plasma pharmacokinetic in mice after intravenous injection. Particulars: i.v. 10 mg/kg ETO.

Read-outs that look alike come from different tables or passages of the source.

One may read the AUC(0-t) as exposure summed from dosing to a finite time, without extrapolation to infinity. Read a low AUC(0-t) as low exposure. As a reminder, the MRT is a mean duration of stay, worked out from the concentration-time curve. As a reminder, the half-life is the time in which the quantity being followed falls by half. Higher therefore signals slow loss. For `COc1cc([C@@H]2c3cc4c(cc3[C@@H](O[C@@H]3O[C@@H]5CO[C@@H](C)O[C@H]5[C@H](O)[C@H]3O)[C@H]3COC(=O)[C@H]23)OCO4)cc(OC)c1O` [Free Etoposide, etoposide], the “White blood cell count (10^9 cells/L), Days 1” value with white blood cells (WBC) (day 1, taken as control before treatment) is 8.9 ± 2.3 10^9 cells/L. Besides, the “White blood cell count (10^9 cells/L), Days 12” value with white blood cells (WBC) (day 12, last day of treatment, i.v. 10 mg/kg) was 6.5 ± 4.4 10^9 cells/L. Moreover, in the data set on white blood cells (WBC) (day 15, i.v. 10 mg/kg), the “White blood cell count (10^9 cells/L), Days 15” value is 11.6 ± 0.9 10^9 cells/L. Besides, the “White blood cell count (10^9 cells/L), Days 17” value in the data set with white blood cells (WBC) (day 17, i.v. 10 mg/kg) was 10.4 ± 1.3 10^9 cells/L. Besides, the “White blood cell count (10^9 cells/L), Days 22” value in the data set with white blood cells (WBC) (day 22, i.v. 10 mg/kg) is 11.3 ± 3.4 10^9 cells/L. Moreover, the IC50 in data set [1] (LLC1, 48 h, read-out: LLC1-IC 50 (48 h) (μM)) is 1.66 ± 0.13 µM; in data set [1] (LLC1, 72 h, read-out: LLC1-IC 50 (72 h) (μM)), 1.05 ± 0.02 µM; with CT26 colon cancer cells (CT26, 48 h, read-out: CT26-IC50 (48 h) (μM)), 11.3 ± 1.4 µM; in the data set on CT26 colon cancer cells (CT26, 48 h, read-out: IC 50 (48 h) (μg/mL)), 8.99 µg/mL; in the data set on CT26 colon cancer cells (CT26, 72 h, read-out: CT26-IC50 (72 h) (μM)), 5.6 ± 0.1 µM; with CT26 colon cancer cells (CT26, 72 h, read-out: IC 50 (72 h) (μg/mL)), 5.17 µg/mL. Moreover, in “in vivo”, the AUC(0-t) is 6300 ng·h/mL. For the same compound, the mean residence time MRT in the data set “in vivo” was 1.89 min. The half-life in “in vivo” turned out to be 4.89 min. Besides, the “Time for median tumor to reach 50 mm^3” value in data set [2] was 9.5. Besides, in data set [2], the “mice weight loss throughout the investigation” value is on record as “a decrease is observed”. The “Mean body weight change, d17” value in data set [2] (second value of the cell, d17) is recorded as “+3.85 d17”. The “Mean body weight change (day of nadir)” value in data set [2] (value at nadir) is −3.40. Further, the “Median Tumor Volume (mm^3 on day 12)” value in data set [2] (day 12) came out at 69 mm^3. The “Maximum amount in total mice plasma (μg/mL) ± SD (n = 6)” value in data set [3] was 37.62 ± 0.85 µg/mL.

For the origin of these results see patent US20210315831A1, “PREPARATION OF NANOSUSPENSION COMPRISING NANOCRYSTALS OF ACTIVE PHARMACEUTICAL INGREDIENTS WITH LITTLE OR NO STABILIZING AGENTS” (CENTRE NATIONAL DE LA RECHERCHE SCIENTIFIQUE, priority 2018, published 2021).
